In US12180137B1, “Solid forms of enantiopure deuterium-enriched bupropion and methods of use thereof” (DeuteRx, LLC, priority 2024, dated 2024):
Where a name gives a salt, the structure may show the parent alone.

Assay: Particle size distribution by laser diffraction (Malvern Mastersizer 3000, wet dispersion)
Format: physicochemical
Settings: wet dispersion in Isopar G, average of three consecutive measurements
Description: Particle size distribution was analyzed using laser diffraction. The apparatus used was a Malvern Mastersizer 3000 equipped with a Hydro 3000S cell for wet dispersion measurements. The measuring range was 0.01-3500 μm, the dispersant used was Isopar G (dispersant RI 1.42). The scattering model used was Mie (material RI 1.50, AI 0.10). The cell was cleaned, filled with dispersant, aligned and the background measured (30 sec. for red light, 10 seconds for blue light). The pump speed was set at 2800 rpm. About 100 mg of the sample were dispersed in 0.5 ml of 2% w/w soy lecithin solution in isopar G, stirred gently with a glass rod and brought to 10 ml with isopar G. The suspension was sonicated for about a minute, then added dropwise to the measurement cell until an obscuration of 10-20% was obtained. The sample was then measured for 20 seconds with red light and 10 seconds with blue light. The results given, expressed in Dv(10), Dv(50) and Dv(90) are the average of three consecutive measurements (Table 3).

| SMILES | Particle size distribution Dv(10) | Particle size distribution Dv(50) | Particle size distribution Dv(90) |
| --- | --- | --- | --- |
| CC(NC(C)(C)C)C(=O)c1cccc(Cl)c1 (racemic) [Bupropion HCl] | 4.9 μm | 64 μm | 208 μm |
| [2H]N(C(C)(C)C)[C@@]([2H])(C)C(=O)c1cccc(Cl)c1 [Compound 101] | 7.1 μm | 31 μm | 179 μm |
